Data published in patent US12539337B2 (priority 2013, dated 2026).
Entries after “also recorded” stand apart in the source; their conditions may differ.

How the values were obtained:
[1] = system: sNMDARs; assay: Whole-cell patch-clamp recordings of spontaneous NMDAR-mediated sEPSCs in cerebrocortical neurons; format: cell-based, rat; conditions: free memantine at 10 μM
Procedure: Whole-cell voltage-clamp recordings were performed from neurons after 14 days in vitro. […] All recordings were performed using an Axopatch 200B amplifier (Molecular Devices; Sunnyvale, CA, USA) at room temperature with a holding potential of −70 mV. Currents were digitally sampled at 10-20 kHz and filtered at 2-5 kHz.
Currents were acquired using a Digidata 1322 interface and pClamp 10.1 software. All recordings were made at room temperature at a holding potential of −70 mV. The extracellular solution contained the following: 137 mM NaCl, 1 mM NaHCO3, 0.34 mM Na2HPO4, 5.36 mM KCl, 0.44 mM KH2PO4, 3 mM CaCl2, 5 mM HEPES, 22.2 mM glucose, 0.01 mM glycine, and 0.003 mM strychnine, pH adjusted to 7.2. […]
The spontaneous NMDAR-mediated sEPSCs are usually presented as bursts, with each burst consisting of multiple EPSCs. […] Then, the values for charge transfer of each NMDAR-mediated sEPSC starting from the peak of the first NMDAR-mediated sEPSC and continuing to the baseline were determined, which took about 2 seconds in the majority of analyzed sEPSCs. […] Additionally, the frequency and amplitude of NMDAR-mediated sEPSCs were calculated for each experimental condition during about 100 seconds of recording time. The mean amplitude was calculated by averaging the amplitude of the maximal NMDA-mediated current in each burst. […]

[2] = system: NMDARs; format: cell-based, rat; conditions: memantine alone; read-out: IC50 for blocking NMDARs
Procedure: Primary cerebrocortical cultures were made from E16 rat pups and grown on 12-mm glass coverslips. Briefly, cortices were dissected from 1 to 2 days old rats and enzymatically treated (papain, 200 U/ml; 30 minutes, 37° C.). After mechanical dissociation in minimum essential medium (MEM; Gibco; Grand Island, NY, USA), the cells were plated into culture flasks and grown at 37° C. in a humidified 5% CO2/95% air atmosphere.
Whole-cell voltage-clamp recordings were performed from neurons after 14 days in vitro. The extracellular solution contained: 135 mM NaCl, 2.5 mM KCl, 2 mM CaCl2, 0-0.01 mM MgCl2, 1 mM NaHCO3, 0.34 mM Na2HPO4, 0.44 mM KH2PO4, 20 mM glucose, 10 mM Hepes, pH 7.4. Patch electrodes with a final tip resistance of 4-7 MΩ, were filled with a solution containing (in mM): 120 mM CsCl, 20 mM tetraethylammonium chloride (TEA-Cl), 10 mM Hepes, 2.25 mM EGTA, 1 mM CaCl2, 2 mM MgCl2, 0.001 mM and phalloidin, pH 7.4. pCLAMP 10 software (Molecular Devices; Sunnyvale, CA, USA) was used for data acquisition and analysis. All recordings were performed using an Axopatch 200B amplifier (Molecular Devices; Sunnyvale, CA, USA) at room temperature with a holding potential of −70 mV. […]
To evaluate their pharmacological profile, the effects of Au-Mem on NMDAR-mediated currents were evaluated in cerebrocortical neurons using patch-clamp whole-cell recordings. […]

Compound: CC12CC3CC(C)(C1)CC(N)(C3)C2 [memantine, 3,5-dimethyladamantan-1-amine]
- effect on synaptic activity (sEPSCs) [1]: almost completely inhibit; also recorded: did block it
- IC50 [2]: ~1 µM
